Measurements published in patent publication US9849135B2, “USP14 inhibitors for treating or preventing viral infections” (priority 2013, dated 2017).
Like-named read-outs stand apart in the source and are kept apart here.

Assays:
WNV (WNO2-1956) = type: cell-based, West Nile virus
[1] = tested on: yellow fever virus (YFV, 17D vaccine strain); type: cell-based
LACV (LAC74-32813) = type: cell-based, La Crosse virus
[2] = tested on: DENV2 (New Guinea C strain); type: cell-based, Dengue virus; conditions: 100 μM IU1; preincubated cells
DENV2 = type: cell-based, Dengue virus
CHIKV (LR2006-OPY1) = type: cell-based, Chikungunya virus

## Cc1cc(C(=O)CN2CCCC2)c(C)n1-c1ccc(F)cc1 [IU1, 1-(1-(4-fluorophenyl)-2,5-dimethyl-1H-pyrrol-3-yl)-2-(pyrrolidin-1-yl)ethanone]
WNV (WNO2-1956)
  WNV titer reduction: 3-5 fold
  WNV titer versus without the drug: significantly higher
  plaques in plaque assay (WNV): no plaques were observed
[1]
  YFV titer reduction: 3-5 fold
LACV (LAC74-32813)
  LACV replication reduction: 3 fold
[2]
  plaques in plaque assay: No plaques were observed
DENV2; 75 μM IU1, post-infection addition
  titer, % of maximum: 37%
DENV2; 100 μM IU1, post-infection addition
  titer, % of maximum: 0.5%
CHIKV (LR2006-OPY1)
  effect on CHIKV replication: negligible or non-existent
